Results published in US5008265A, “2-amino-7-(alicyclomethyl)-3H,5H,-pyrrolo[3,2-d]pyrimidin-4-ones and pharmaceutical uses and compositions containing the same” (BioCryst, Inc., priority 1989, dated 1991).
Read-outs that look alike come from different tables or passages of the source.

Columns and labels:
[1] = molecular target: T1, purine nucleoside phosphorylase (PNP) (Bos taurus, UniProt P55859); test: biochemical; type: biochemical, calf
T1 construct: using calf spleen as the enzyme source; from tissue; host or cells: calf spleen
T1 sequence (P55859 1-289): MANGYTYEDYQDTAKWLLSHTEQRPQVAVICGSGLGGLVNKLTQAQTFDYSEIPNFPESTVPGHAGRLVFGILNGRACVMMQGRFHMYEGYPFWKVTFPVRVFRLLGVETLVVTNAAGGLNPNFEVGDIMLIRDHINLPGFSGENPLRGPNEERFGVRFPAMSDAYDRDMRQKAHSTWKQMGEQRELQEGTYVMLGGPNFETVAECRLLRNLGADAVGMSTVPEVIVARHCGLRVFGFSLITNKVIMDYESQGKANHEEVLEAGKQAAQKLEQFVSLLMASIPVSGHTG
Description: The compound of Example 8 is tested for enzyme inhibition activity.

[2] = system: plasma inosine; test: plasma inosine in Lewis rats after intraperitoneal injection (HPLC); type: in vivo; details: 30 mg twice per day, aqueous carrier with ten percent DMSO, vs vehicle controls
Description: A pharmaceutical composition for intraperitoneal injection is prepared for testing the compound (IA). An intraperitoneal injection solution containing the compound (IA) is dissolved in an aqueous carrier that contains ten percent DMSO.
The compound (IA) is intraperitoneally injected into Lewis Rats via the test composition of Example 21 to provide 30 mg of the compound (IA), with an injection given twice per day. Controls are used, which receive only the vehicle. At specific times after administration, the animals are sacrificed and plasma samples are prepared. The plasma is extracted with cold 0.5 N HClO4 and neutralized with solid NH4 HCO3. After removal of perchlorate salts, the extract is subjected to HPLC on a reversed phase column (Spherisorb ODSI).
Compounds prepared as in Examples 10-20 are each made into a pharmaceutical formulation in accordance with the preparation of Example 21 and the resultant injectable solutions are tested in accordance with the procedure of Example 22.
A pharmaceutical composition for intraperitoneal injection is prepared for testing the compound (IC). An intraperitoneal injection solution is prepared containing the compound (IC) is dissolved in an aqueous carrier that contains ten percent DMSO. […]

[3] = system: CCRF-CEM cells; test: potentiation of the toxicity of 2'-deoxyguanosine (d-Guo) in CCRF-CEM cells; type: cell-based; details: read-out: IC50, concentration of the compound required to reduce the increase in cell number between 0 and 72 hours to 50% of that of control cultures, with d-Guo at 5.62 μM, RPMI-1640 medium
Description: CCRF-CEM cells are grown in RPMI-1640 medium. To a suspension cultures of these cells, d-Guo at a fixed concentration (5.62 μM) and the compound at varied concentrations are added and the number of cells are determined in a Coulter counter 24, 48, and 72 hours thereafter.

[4] = 1 mM phosphate, calf spleen enzyme, read-out: PNP activity (IC50) at 1 mM phosphate
[5] = read-out: PNP activity (IC50) at 50 mM phosphate, 50 mM phosphate, calf spleen enzyme

IC50 [1, 4] [nM]	IC50 [1, 5] [nM]	SMILES	increase in plasma inosine [2]	further results
90	2500	Nc1nc2c(CC3C4CC5CC(C4)CC3C5)c[nH]c2c(=O)[nH]1 (stereo not shown) [Example 8, 2-amino-7-(2-adamantylmethyl)-3H,5H-pyrrolo[3,2-d]pyrimidin-4-one]	significant increase in plasma inosine	
29	1800	Nc1nc2c(CC3CCCC3)c[nH]c2c(=O)[nH]1 [Example 41, 2-amino-7-(cyclopentylmethyl)-3H,5H-pyrrolo[3,2-d]-pyrimidin-4-one]	significant increase in plasma inosine	
		Nc1nc2c(CC3CCCCC3)c[nH]c2c(=O)[nH]1 [Example 56, 2-amino-7-(cyclohexylmethyl) -3H,5H-pyrrolo[3,2-d]-pyrimidin-4-one]		IC50 [3]: 2000 nM
		CC1CCCC(Cc2c[nH]c3c(=O)[nH]c(N)nc23)C1 (stereo not shown) [Example 59, 2-amino-7-(3-methylcyclohexylmethyl)-3H,5H-pyrrolo[3,2-d]pyrimidin-4-one]		IC50 ([1]; read-out: PNP activity (IC50) at 1 mM phosphate): 25 nM
30		Nc1nc2c(CC3CCCCCC3)c[nH]c2c(=O)[nH]1 [Example 70, 2-amino-7-(cycloheptylmethyl)-3H,5H-pyrrolo[3,2-d]pyrimidin-4-one]		IC50 ([1]; PNP activity (IC50) at 50 mM phosphate, 50 mM phosphate, calf spleen enzyme): 840 nM
